{"source": "the NIST ThermoML archive (doi:10.1016/j.jct.2018.12.014)", "key": {"[1]": {"assay": "refractive index (Na D-line) (dimensionless); wn = mass fraction of the nth substance listed", "conditions": "101 kPa, Liquid, Standard Abbe refractometry"}, "[2]": {"assay": "wn = mass fraction of the nth substance listed", "conditions": "101 kPa, Liquid, Vibrating tube method"}}, "note": "Numbers after ± are expanded uncertainties.", "data": [{"smiles": "C[P+](c1ccccc1)(c1ccccc1)c1ccccc1.[Br-]", "note": "[methyltriphenylphosphonium bromide] + CN(CCO)CCO", "values": [{"measurement": "refractive index", "setting": "[1]; 293.15 K, w1 = 0.1578", "value": "1.49579 ± 0.0039"}, {"measurement": "refractive index", "setting": "[1]; 293.15 K, w1 = 0.2306", "value": "1.50867 ± 0.0038"}, {"measurement": "refractive index", "setting": "[1]; 293.15 K, w1 = 0.2998", "value": "1.52077 ± 0.0038"}, {"measurement": "refractive index", "setting": "[1]; 298.15 K, w1 = 0.1578", "value": "1.49402 ± 0.0038"}, {"measurement": "refractive index", "setting": "[1]; 298.15 K, w1 = 0.2306", "value": "1.50694 ± 0.0038"}, {"measurement": "refractive index", "setting": "[1]; 298.15 K, w1 = 0.2998", "value": "1.51904 ± 0.0038"}, {"measurement": "refractive index", "setting": "[1]; 303.15 K, w1 = 0.1578", "value": "1.49224 ± 0.0038"}, {"measurement": "refractive index", "setting": "[1]; 303.15 K, w1 = 0.2306", "value": "1.50517 ± 0.0038"}, {"measurement": "refractive index", "setting": "[1]; 303.15 K, w1 = 0.2998", "value": "1.51732 ± 0.0038"}, {"measurement": "refractive index", "setting": "[1]; 308.15 K, w1 = 0.1578", "value": "1.49037 ± 0.0038"}, {"measurement": "refractive index", "setting": "[1]; 308.15 K, w1 = 0.2306", "value": "1.5034 ± 0.0038"}, {"measurement": "refractive index", "setting": "[1]; 308.15 K, w1 = 0.2998", "value": "1.51557 ± 0.0038"}, {"measurement": "refractive index", "setting": "[1]; 313.15 K, w1 = 0.1578", "value": "1.48865 ± 0.0038"}, {"measurement": "refractive index", "setting": "[1]; 313.15 K, w1 = 0.2306", "value": "1.50162 ± 0.0038"}, {"measurement": "refractive index", "setting": "[1]; 313.15 K, w1 = 0.2998", "value": "1.51383 ± 0.0038"}, {"measurement": "refractive index", "setting": "[1]; 318.15 K, w1 = 0.1578", "value": "1.4869 ± 0.0038"}, {"measurement": "refractive index", "setting": "[1]; 318.15 K, w1 = 0.2306", "value": "1.49961 ± 0.0038"}, {"measurement": "refractive index", "setting": "[1]; 318.15 K, w1 = 0.2998", "value": "1.51212 ± 0.0038"}, {"measurement": "refractive index", "setting": "[1]; 323.15 K, w1 = 0.1578", "value": "1.48502 ± 0.0038"}, {"measurement": "refractive index", "setting": "[1]; 323.15 K, w1 = 0.2306", "value": "1.49793 ± 0.0038"}, {"measurement": "refractive index", "setting": "[1]; 323.15 K, w1 = 0.2998", "value": "1.5103 ± 0.0038"}, {"measurement": "refractive index", "setting": "[1]; 328.15 K, w1 = 0.1578", "value": "1.48313 ± 0.0038"}, {"measurement": "refractive index", "setting": "[1]; 328.15 K, w1 = 0.2306", "value": "1.49584 ± 0.0038"}, {"measurement": "refractive index", "setting": "[1]; 328.15 K, w1 = 0.2998", "value": "1.5083 ± 0.0038"}, {"measurement": "refractive index", "setting": "[1]; 333.15 K, w1 = 0.1578", "value": "1.48114 ± 0.0038"}, {"measurement": "refractive index", "setting": "[1]; 333.15 K, w1 = 0.2306", "value": "1.4942 ± 0.0038"}, {"measurement": "refractive index", "setting": "[1]; 333.15 K, w1 = 0.2998", "value": "1.50644 ± 0.0038"}, {"measurement": "refractive index", "setting": "[1]; 338.15 K, w1 = 0.1578", "value": "1.47935 ± 0.0038"}, {"measurement": "refractive index", "setting": "[1]; 338.15 K, w1 = 0.2306", "value": "1.49244 ± 0.0038"}, {"measurement": "refractive index", "setting": "[1]; 338.15 K, w1 = 0.2998", "value": "1.50466 ± 0.0038"}, {"measurement": "refractive index", "setting": "[1]; 343.15 K, w1 = 0.1578", "value": "1.47746 ± 0.0038"}, {"measurement": "refractive index", "setting": "[1]; 343.15 K, w1 = 0.2306", "value": "1.49064 ± 0.0038"}, {"measurement": "refractive index", "setting": "[1]; 343.15 K, w1 = 0.2998", "value": "1.50288 ± 0.0038"}, {"measurement": "mass density", "setting": "[2]; 293.15 K, w1 = 0.1578", "value": "1086.84 ± 8.5", "unit": "kg/m3"}, {"measurement": "mass density", "setting": "[2]; 293.15 K, w1 = 0.2306", "value": "1106.7 ± 8.4", "unit": "kg/m3"}, {"measurement": "mass density", "setting": "[2]; 293.15 K, w1 = 0.2998", "value": "1124.09 ± 8.3", "unit": "kg/m3"}, {"measurement": "mass density", "setting": "[2]; 298.15 K, w1 = 0.1578", "value": "1083.1 ± 8.5", "unit": "kg/m3"}, {"measurement": "mass density", "setting": "[2]; 298.15 K, w1 = 0.2306", "value": "1102.99 ± 8.4", "unit": "kg/m3"}, {"measurement": "mass density", "setting": "[2]; 298.15 K, w1 = 0.2998", "value": "1120.4 ± 8.2", "unit": "kg/m3"}, {"measurement": "mass density", "setting": "[2]; 303.15 K, w1 = 0.1578", "value": "1079.34 ± 8.5", "unit": "kg/m3"}, {"measurement": "mass density", "setting": "[2]; 303.15 K, w1 = 0.2306", "value": "1099.26 ± 8.3", "unit": "kg/m3"}, {"measurement": "mass density", "setting": "[2]; 303.15 K, w1 = 0.2998", "value": "1116.71 ± 8.2", "unit": "kg/m3"}, {"measurement": "mass density", "setting": "[2]; 308.15 K, w1 = 0.1578", "value": "1075.59 ± 8.4", "unit": "kg/m3"}, {"measurement": "mass density", "setting": "[2]; 308.15 K, w1 = 0.2306", "value": "1095.54 ± 8.3", "unit": "kg/m3"}, {"measurement": "mass density", "setting": "[2]; 308.15 K, w1 = 0.2998", "value": "1113.03 ± 8.2", "unit": "kg/m3"}, {"measurement": "mass density", "setting": "[2]; 313.15 K, w1 = 0.1578", "value": "1071.84 ± 8.4", "unit": "kg/m3"}, {"measurement": "mass density", "setting": "[2]; 313.15 K, w1 = 0.2306", "value": "1091.82 ± 8.3", "unit": "kg/m3"}, {"measurement": "mass density", "setting": "[2]; 313.15 K, w1 = 0.2998", "value": "1109.36 ± 8.2", "unit": "kg/m3"}, {"measurement": "mass density", "setting": "[2]; 318.15 K, w1 = 0.1578", "value": "1068.08 ± 8.4", "unit": "kg/m3"}, {"measurement": "mass density", "setting": "[2]; 318.15 K, w1 = 0.2306", "value": "1088.09 ± 8.3", "unit": "kg/m3"}, {"measurement": "mass density", "setting": "[2]; 318.15 K, w1 = 0.2998", "value": "1105.69 ± 8.1", "unit": "kg/m3"}, {"measurement": "mass density", "setting": "[2]; 323.15 K, w1 = 0.1578", "value": "1064.32 ± 8.3", "unit": "kg/m3"}, {"measurement": "mass density", "setting": "[2]; 323.15 K, w1 = 0.2306", "value": "1084.36 ± 8.2", "unit": "kg/m3"}, {"measurement": "mass density", "setting": "[2]; 323.15 K, w1 = 0.2998", "value": "1102.01 ± 8.1", "unit": "kg/m3"}, {"measurement": "mass density", "setting": "[2]; 328.15 K, w1 = 0.1578", "value": "1060.54 ± 8.3", "unit": "kg/m3"}, {"measurement": "mass density", "setting": "[2]; 328.15 K, w1 = 0.2306", "value": "1080.63 ± 8.2", "unit": "kg/m3"}, {"measurement": "mass density", "setting": "[2]; 328.15 K, w1 = 0.2998", "value": "1098.34 ± 8.1", "unit": "kg/m3"}, {"measurement": "mass density", "setting": "[2]; 333.15 K, w1 = 0.1578", "value": "1056.77 ± 8.3", "unit": "kg/m3"}, {"measurement": "mass density", "setting": "[2]; 333.15 K, w1 = 0.2306", "value": "1076.9 ± 8.2", "unit": "kg/m3"}, {"measurement": "mass density", "setting": "[2]; 333.15 K, w1 = 0.2998", "value": "1094.66 ± 8.1", "unit": "kg/m3"}, {"measurement": "mass density", "setting": "[2]; 338.15 K, w1 = 0.1578", "value": "1052.98 ± 8.3", "unit": "kg/m3"}, {"measurement": "mass density", "setting": "[2]; 338.15 K, w1 = 0.2306", "value": "1073.17 ± 8.2", "unit": "kg/m3"}, {"measurement": "mass density", "setting": "[2]; 338.15 K, w1 = 0.2998", "value": "1090.99 ± 8", "unit": "kg/m3"}, {"measurement": "mass density", "setting": "[2]; 343.15 K, w1 = 0.1578", "value": "1049.19 ± 8.2", "unit": "kg/m3"}, {"measurement": "mass density", "setting": "[2]; 343.15 K, w1 = 0.2306", "value": "1069.43 ± 8.1", "unit": "kg/m3"}, {"measurement": "mass density", "setting": "[2]; 343.15 K, w1 = 0.2998", "value": "1087.31 ± 8", "unit": "kg/m3"}, {"measurement": "mass density", "setting": "[2]; 348.15 K, w1 = 0.1578", "value": "1045.47 ± 8.2", "unit": "kg/m3"}, {"measurement": "mass density", "setting": "[2]; 348.15 K, w1 = 0.2306", "value": "1065.72 ± 8.1", "unit": "kg/m3"}, {"measurement": "mass density", "setting": "[2]; 348.15 K, w1 = 0.2998", "value": "1083.63 ± 8", "unit": "kg/m3"}, {"measurement": "mass density", "setting": "[2]; 353.15 K, w1 = 0.1578", "value": "1041.65 ± 8.2", "unit": "kg/m3"}, {"measurement": "mass density", "setting": "[2]; 353.15 K, w1 = 0.2306", "value": "1062.05 ± 8.1", "unit": "kg/m3"}, {"measurement": "mass density", "setting": "[2]; 353.15 K, w1 = 0.2998", "value": "1080.06 ± 8", "unit": "kg/m3"}]}]}
